# Experiments:
# [1] = Multiple-dose pharmacokinetic study of legubicin, weekly i.v. for 4 weeks; conditions: free metabolite in plasma, weekly i.v. legubicin 5 mg/kg; for Tmax: median [min, max]; for AUClast / Cmax: n = 3
# Procedure: (§1) The mixture was vortexed for 3 min, and then centrifuged at 22,000× g at 4 °C for 10 min. A final analysis was conducted by injecting 5 µL supernatant into a UHPLC-MS/MS system. Mouse plasma samples were treated in the same way as the rat plasma samples, except for protein precipitation, with 200 µL of 5 pmol/mL IS working solution and injection of 2 µL of supernatant for analysis.
# (1) For the hydrolysis process, an aliquot of 25 µL of rat/mouse plasma was transferred into an Eppendorf tube, and then 50 µL of enzyme digestion buffer and 25 µL of legumain enzyme were placed into the tube. The mixture was vortexed for 1 min, and then incubated in a water bath for 24 h at 37 °C for enzymatic hydrolysis. (2) For the protein precipitation process, 1000 µL of IS working solution (5 pmol/mL and 50 pmol/mL for rat and mouse plasmas, respectively) was added to the enzymatic-hydrolysis solution. Then, the sample was vortexed for 3 min and centrifuged at 22,000× g for 10 min at 4 °C. Analyses were performed on the 3 µL aliquot of the solution used in the UHPLC-MS/MS system.
# Twenty-four rats, inclusive of both sexes, were randomly distributed into four groups. Groups 1, 2, and 3 were single-dose groups, among which the subjects received legubicin via tail intravenous injection (a dose of 1.5, 5, or 15 mg/kg; i.e., 1.36, 4.52, or 13.6 µmol/kg). The fourth group was utilized for a multi-dose study at 5 mg/kg (once-weekly for 4 consecutive weeks). Blood samples of approximately 150 µL were taken from the jugular vein at 0 h (pre-dosing) and at 0.167 h (10 min), 0.5 h, 1 h, 2 h, 4 h, 8 h, 24 h, 48 h, and 72 h post-dosing in the single-dose groups. Samples were also obtained on days 1 and 22 for the multiple-dose group in the same way as for the single-dose groups. However, on days 8 and 15, samples were taken only before and 10 min after administration. The K2EDTA quantities containing blood samples were centrifuged (4 °C, 4000 rpm, 10 min) to collect plasma samples, which were separated into EP tubes and kept at −80 °C until further assay.
# (§2) The analysis software (Version 1.5.2, AB Sciex, Vaughan, ON, Canada) was applied to data acquisition and quantification. Pharmacokinetic parameters were calculated with WinNonlin Phoenix (v6.4, Pharsight, Mountain View, CA, USA) with the noncompartmental method, and were presented as mean ± SD (%CV). The “Best fit” strategy in the WinNonlin Phoenix was used for the calculation of elimination half-life and the selection of the elimination phase. Graphs were plotted by GraphPad Software (GraphPad Prism 8.0.2; GraphPad Software, Inc., La Jolla, CA, USA).
# [2] = Tissue-distribution study after i.v. legubicin or doxorubicin; conditions: after i.v. legubicin 9.05 µmol/kg, HT1080 tumor-bearing mice
# Procedure: as §1
# Each legubicin administration group corresponded to a sampling time-point (4, 16, 32, 48, 96, 168, and 240 h after administration). […] Blood samples and tumor, heart, and kidney tissues were collected at the sampling time points (4, 16, 32, 48, 96, 168, and 240 h after dosing). In addition, liver, spleen, lung, stomach, small intestine, gonads, brain, skeletal muscle, and skin were also collected at 4, 32, 96, and 240 h post-dose time points in the legubicin administration group. All whole-blood samples were processed according to the same processing steps, described above, for rat whole-blood samples.
# as §2
# [3] = Storage stability of analytes in rat plasma (method validation); conditions: for Auto-Sampler Stability at 2–8 °C (72 h), Bias / Auto-Sampler Stability at 2–8 °C (72 h), Measured Concentration: processed rat plasma; for Auto-Sampler Stability at 2–8 °C (72 h), Bias / Short-Term Stability at Room Temperature (4 h), Bias / Freeze and Thaw Stability at −80 °C/Room Temperature (3 Cycles), Bias / Long-Term Stability at −80 °C (70 days), Bias: n = 6; for Auto-Sampler Stability at 2–8 °C (72 h), Measured Concentration / Freeze and Thaw Stability at −80 °C/Room Temperature (3 Cycles), Measured Concentration / Long-Term Stability at −80 °C (70 days), Measured Concentration / Short-Term Stability at Room Temperature (4 h), Measured Concentration: n = 6, mean ± SD; for Short-Term Stability at Room Temperature (4 h), Bias / Freeze and Thaw Stability at −80 °C/Room Temperature (3 Cycles), Bias / Long-Term Stability at −80 °C (70 days), Bias / Freeze and Thaw Stability at −80 °C/Room Temperature (3 Cycles), Measured Concentration / Long-Term Stability at −80 °C (70 days), Measured Concentration / Short-Term Stability at Room Temperature (4 h), Measured Concentration: rat plasma; for Short-Term Stability at Room Temperature (4 h), Bias: bias from nominal
# Procedure: (§3) By investigating low- and high-concentration stability QCs in six replicates at different storage conditions, autosampler, short-term (bench-top), freeze and thaw, and long-term stability evaluations were conducted.
# [4] = Storage stability of analytes in mouse plasma (method validation); conditions: for Freeze and thaw stability at -80 °C/ room temperature, Bias / Freeze and thaw stability at -80 °C/ room temperature, Measured concentration / Long term stability at -80 °C (30 days), Bias / Short term stability at room temperature (6 h), Bias / Long term stability at -80 °C (30 days), Measured concentration / Short term stability at room temperature (6 h), Measured concentration: mouse plasma; for Freeze and thaw stability at -80 °C/ room temperature, Bias / Freeze and thaw stability at -80 °C/ room temperature, Measured concentration: 1 cycle; for Freeze and thaw stability at -80 °C/ room temperature, Bias / Long term stability at -80 °C (30 days), Bias / Short term stability at room temperature (6 h), Bias / Auto-sampler stability at 2-8 °C, Bias: n = 6; for Freeze and thaw stability at -80 °C/ room temperature, Measured concentration / Long term stability at -80 °C (30 days), Measured concentration / Short term stability at room temperature (6 h), Measured concentration / Auto-sampler stability at 2-8 °C, Measured concentration: n = 6, mean ± SD; for Auto-sampler stability at 2-8 °C, Bias / Auto-sampler stability at 2-8 °C, Measured concentration: processed mouse plasma, 12 h
# Procedure: as §3
# [5] = Storage stability of analytes in mouse tumor homogenate (method validation)
# Procedure: (§4) Tumor-bearing mouse tumor/individual tissue samples were homogenized by adding PBS at a ratio of 1:5 (e.g., 1 g of tumor sample to 5 mL of PBS) to make a tumor/tissue homogenate. A quantity of 60 µL of homogenate was taken as a tumor/tissue sample and processed in the same manner as the mouse plasma sample, with the exception of 240 µL of IS working solution used for protein precipitation.
# as §3
# [6] = Storage stability of analytes in mouse liver homogenate (method validation)
# Procedure: as §4, §3
# [7] = female SD rats, multiple dose (day 22)
# [8] = female SD rats, single dose (day 1)
# [9] = male SD rats, multiple dose (day 22)
# [10] = male SD rats, single dose (day 1)
# [11] = high QC (Leu-DOX 4000, DOX 1200 pmol/mL, conjugate 80 nmol/mL)
# [12] = high QC (nominal Leu-DOX 4000, DOX 1200 pmol/mL)
# [13] = low QC (Leu-DOX 10, DOX 3 pmol/mL, conjugate 0.2 nmol/mL)
# [14] = low QC (nominal Leu-DOX 10, DOX 3 pmol/mL)
# [15] = high QC (Leu-DOX 2400, DOX 800 pmol/mL)
# [16] = high QC (nominal Leu-DOX 2400, DOX 800 pmol/mL)
# [17] = low QC (Leu-DOX 9, DOX 3 pmol/mL)
# [18] = low QC (nominal Leu-DOX 9, DOX 3 pmol/mL)
# [19] = high QC (Leu-DOX 2400, DOX 800 pmol/mL, conjugate 80 nmol/mL)
# [20] = low QC (Leu-DOX 9, DOX 3 pmol/mL, conjugate 0.2 nmol/mL)
compound,measurement,setting,value
"COc1cccc2c1C(=O)c1c(O)c3c(c(O)c1C2=O)C[C@@](O)(C(=O)CO)C[C@@H]3O[C@H]1C[C@H](NC(=O)[C@@H](N)CC(C)C)[C@H](O)[C@H](C)O1 [Leu-DOX, N-L-leucyl-doxorubicin]",Tmax,[1]; [7],"0.167 [0.167, 0.167] h"
same,AUClast,[1]; [7],0.0604 ± 0.00643 µM·h
same,Cmax,[1]; [7],80.3 ± 8.57 nM
same,Tmax,[1]; [8],"0.167 [0.167, 0.167] h"
same,AUClast,[1]; [8],0.0387 ± 0.00104 µM·h
same,Cmax,[1]; [8],60.0 ± 6.89 nM
same,Tmax,[1]; [9],"0.167 [0.167, 0.167] h"
same,AUClast,[1]; [9],0.112 ± 0.014 µM·h
same,Cmax,[1]; [9],141 ± 22.0 nM
same,Tmax,[1]; [10],"0.167 [0.167, 0.167] h"
same,AUClast,[1]; [10],0.081 ± 0.0133 µM·h
same,Cmax,[1]; [10],111 ± 13.5 nM
same,brain penetration of the metabolite,[2],neither the metabolite doxorubicin nor free Leu-Dox permeated the brain
same,tissue concentration rank order of the metabolite,[2]; n = 6,"highest concentration in the liver, followed by the spleen, small intestine, kidney, tumor, lung, skin, gonads, stomach, plasma, skeletal muscle, and heart"
same,"Auto-Sampler Stability at 2–8 °C (72 h), Bias",[3]; [11],−6.0%
same,"Auto-Sampler Stability at 2–8 °C (72 h), Measured Concentration",[3]; [12],3758.33 ± 422.58 nM
same,"Auto-Sampler Stability at 2–8 °C (72 h), Bias",[3]; [13],−0.4%
same,"Auto-Sampler Stability at 2–8 °C (72 h), Measured Concentration",[3]; [14],9.96 ± 0.48 nM
same,"Short-Term Stability at Room Temperature (4 h), Bias",[3]; [11],−3.2%
same,"Freeze and Thaw Stability at −80 °C/Room Temperature (3 Cycles), Bias",[3]; [11],−5.6%
same,"Long-Term Stability at −80 °C (70 days), Bias",[3]; [11],7.5%
same,"Freeze and Thaw Stability at −80 °C/Room Temperature (3 Cycles), Measured Concentration",[3]; [12],3775.00 ± 329.89 pmol/mL
same,"Long-Term Stability at −80 °C (70 days), Measured Concentration",[3]; [12],4300.00 ± 240.83 pmol/mL
same,"Short-Term Stability at Room Temperature (4 h), Measured Concentration",[3]; [12],3871.67 ± 390.25 pmol/mL
same,"Short-Term Stability at Room Temperature (4 h), Bias",[3]; [13],−2.4%
same,"Freeze and Thaw Stability at −80 °C/Room Temperature (3 Cycles), Bias",[3]; [13],2.0%
same,"Long-Term Stability at −80 °C (70 days), Bias",[3]; [13],0.7%
same,"Freeze and Thaw Stability at −80 °C/Room Temperature (3 Cycles), Measured Concentration",[3]; [14],10.20 ± 0.70 pmol/mL
same,"Long-Term Stability at −80 °C (70 days), Measured Concentration",[3]; [14],10.07 ± 1.50 pmol/mL
same,"Short-Term Stability at Room Temperature (4 h), Measured Concentration","[3]; low QC (nominal Leu-DOX 10, DOX 3 pmol/mL), UHPLC-MS/MS",9.76 ± 0.41 pmol/mL
same,"Freeze and thaw stability at -80 °C/ room temperature, Bias",[4]; [15],-1.8%
same,"Freeze and thaw stability at -80 °C/ room temperature, Measured concentration",[4]; [16],2356.67 ± 81.65 pmol/mL
same,"Freeze and thaw stability at -80 °C/ room temperature, Bias",[4]; [17],-1.4%
same,"Freeze and thaw stability at -80 °C/ room temperature, Measured concentration",[4]; [18],8.87 ± 0.24 pmol/mL
same,"Long term stability at -80 °C (30 days), Bias",[4]; [19],9.9%
same,"Short term stability at room temperature (6 h), Bias",[4]; [19],-5.3%
same,"Long term stability at -80 °C (30 days), Measured concentration",[4]; [16],2636.67 ± 103.47 pmol/mL
same,"Short term stability at room temperature (6 h), Measured concentration",[4]; [16],2275.00 ± 81.67 pmol/mL
same,"Long term stability at -80 °C (30 days), Bias",[4]; [20],0.9%
same,"Short term stability at room temperature (6 h), Bias",[4]; [20],-3.2%
same,"Long term stability at -80 °C (30 days), Measured concentration",[4]; [18],9.08 ± 0.43 pmol/mL
same,"Short term stability at room temperature (6 h), Measured concentration",[4]; [18],8.71 ± 0.32 pmol/mL
same,"Auto-sampler stability at 2-8 °C, Bias",[4]; [15],-2.4%
same,"Auto-sampler stability at 2-8 °C, Measured concentration",[4]; [16],2341.67 ± 132.43 pmol/mL
same,"Auto-sampler stability at 2-8 °C, Bias",[4]; [17],-3.1%
same,"Auto-sampler stability at 2-8 °C, Measured concentration",[4]; [18],8.72 ± 0.62 pmol/mL
same,"Freeze and thaw stability at -80 °C/ room temperature, Bias","[5]; mouse tumor homogenate, 3 cycles, low QC (Leu-DOX 27, DOX 9 pmol/mL), n = 6",2.6%
same,"Freeze and thaw stability at -80 °C/ room temperature, Measured concentration","[5]; mouse tumor homogenate, 3 cycles, low QC (nominal Leu-DOX 27, DOX 9 pmol/mL), n = 6, mean ± SD",27.70 ± 1.13 pmol/mL
same,"Short term stability at room temperature (6 h), Bias","[5]; mouse tumor homogenate, low QC (Leu-DOX 27, DOX 9 pmol/mL), n = 6",2.2%
same,"Short term stability at room temperature (6 h), Measured concentration","[5]; mouse tumor homogenate, low QC (nominal Leu-DOX 27, DOX 9 pmol/mL), n = 6, mean ± SD",27.58 ± 1.95 pmol/mL
same,"Auto-sampler stability at 2-8 °C, Bias","[5]; processed mouse tumor homogenate, 48h, low QC (Leu-DOX 27, DOX 9 pmol/mL), n = 6",-0.4%
same,"Auto-sampler stability at 2-8 °C, Measured concentration","[5]; processed mouse tumor homogenate, 48h, low QC (nominal Leu-DOX 27, DOX 9 pmol/mL), n = 6, mean ± SD",26.88 ± 0.94 pmol/mL
same,"Freeze and thaw stability at -80 °C/ room temperature, Bias","[6]; mouse liver homogenate, 3 cycles, low QC (Leu-DOX 27, DOX 10 pmol/mL), n = 6",0.9%
same,"Freeze and thaw stability at -80 °C/ room temperature, Measured concentration","[6]; mouse liver homogenate, 3 cycles, low QC (nominal Leu-DOX 27, DOX 10 pmol/mL), n = 6, mean ± SD",27.23 ± 1.55 pmol/mL
same,"Short term stability at room temperature (6 h), Bias","[6]; mouse liver homogenate, low QC (Leu-DOX 27, DOX 10 pmol/mL), n = 6",-4.8%
same,"Short term stability at room temperature (6 h), Measured concentration","[6]; mouse liver homogenate, low QC (nominal Leu-DOX 27, DOX 10 pmol/mL), n = 6, mean ± SD",25.72 ± 1.45 pmol/mL
same,"Auto-sampler stability at 2-8 °C, Bias","[6]; processed mouse liver homogenate, 48h, low QC (Leu-DOX 27, DOX 10 pmol/mL), n = 6",3.6%
same,"Auto-sampler stability at 2-8 °C, Measured concentration","[6]; processed mouse liver homogenate, 48h, low QC (nominal Leu-DOX 27, DOX 10 pmol/mL), n = 6, mean ± SD",27.97 ± 3.06 pmol/mL

# From paper PMC10892419, “UHPLC-MS/MS Assay for Quantification of Legubicin, a Novel Doxorubicin-Based Legumain-Activated Prodrug, and Its Application to Pharmacokinetic and Tissue Distribution Studies” (Molecules, 2024)
